Key:
ACO2 C385 (Q99798) = ACO2 C385 (Q99798) (Homo sapiens, UniProt Q99798); experiment: Competitive isoTOP-ABPP in situ; type: cell-based; conditions: MDA-MB-231 cells
[1] = target: T1, cysteines in MDA-MB-231 and Ramos cells (Homo sapiens, UniProt Q8NEC7); experiment: Competitive isoTOP-ABPP in situ (fragment-treated cells); type: cell-based; conditions: 200 μM, insitu
T1 sequence (Q8NEC7 1-633): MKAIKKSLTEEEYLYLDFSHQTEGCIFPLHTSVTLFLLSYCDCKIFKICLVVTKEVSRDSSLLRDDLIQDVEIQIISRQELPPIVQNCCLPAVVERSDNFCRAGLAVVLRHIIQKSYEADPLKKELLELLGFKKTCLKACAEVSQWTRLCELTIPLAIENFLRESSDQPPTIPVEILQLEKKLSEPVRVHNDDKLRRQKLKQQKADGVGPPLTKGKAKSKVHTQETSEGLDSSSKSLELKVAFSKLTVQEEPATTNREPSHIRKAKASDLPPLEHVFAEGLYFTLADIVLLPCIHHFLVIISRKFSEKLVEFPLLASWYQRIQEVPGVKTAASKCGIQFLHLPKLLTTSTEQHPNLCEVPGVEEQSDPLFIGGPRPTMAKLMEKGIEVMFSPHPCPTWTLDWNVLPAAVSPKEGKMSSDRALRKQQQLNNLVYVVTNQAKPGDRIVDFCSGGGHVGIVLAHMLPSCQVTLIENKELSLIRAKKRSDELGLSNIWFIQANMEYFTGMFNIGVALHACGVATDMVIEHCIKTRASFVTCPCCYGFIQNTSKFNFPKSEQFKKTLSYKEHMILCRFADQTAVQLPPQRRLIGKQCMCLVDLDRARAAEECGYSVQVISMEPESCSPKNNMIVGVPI

[2] = target: cysteines in MDA-MB-231 and Ramos cells (Homo sapiens, UniProt Q13232); experiment: as above; type: cell-based; conditions: 200 μM, insitu
[3] = target: cysteines in MDA-MB-231 and Ramos cells (Homo sapiens, UniProt Q9NZB2); experiment: as above; type: cell-based; conditions: 200 μM, insitu, 231
[4] = target: T2, cysteines in MDA-MB-231 and Ramos cells (Homo sapiens, UniProt P42695); experiment: as above; type: cell-based; conditions: 200 μM, insitu
T2 sequence (P42695 1-1498): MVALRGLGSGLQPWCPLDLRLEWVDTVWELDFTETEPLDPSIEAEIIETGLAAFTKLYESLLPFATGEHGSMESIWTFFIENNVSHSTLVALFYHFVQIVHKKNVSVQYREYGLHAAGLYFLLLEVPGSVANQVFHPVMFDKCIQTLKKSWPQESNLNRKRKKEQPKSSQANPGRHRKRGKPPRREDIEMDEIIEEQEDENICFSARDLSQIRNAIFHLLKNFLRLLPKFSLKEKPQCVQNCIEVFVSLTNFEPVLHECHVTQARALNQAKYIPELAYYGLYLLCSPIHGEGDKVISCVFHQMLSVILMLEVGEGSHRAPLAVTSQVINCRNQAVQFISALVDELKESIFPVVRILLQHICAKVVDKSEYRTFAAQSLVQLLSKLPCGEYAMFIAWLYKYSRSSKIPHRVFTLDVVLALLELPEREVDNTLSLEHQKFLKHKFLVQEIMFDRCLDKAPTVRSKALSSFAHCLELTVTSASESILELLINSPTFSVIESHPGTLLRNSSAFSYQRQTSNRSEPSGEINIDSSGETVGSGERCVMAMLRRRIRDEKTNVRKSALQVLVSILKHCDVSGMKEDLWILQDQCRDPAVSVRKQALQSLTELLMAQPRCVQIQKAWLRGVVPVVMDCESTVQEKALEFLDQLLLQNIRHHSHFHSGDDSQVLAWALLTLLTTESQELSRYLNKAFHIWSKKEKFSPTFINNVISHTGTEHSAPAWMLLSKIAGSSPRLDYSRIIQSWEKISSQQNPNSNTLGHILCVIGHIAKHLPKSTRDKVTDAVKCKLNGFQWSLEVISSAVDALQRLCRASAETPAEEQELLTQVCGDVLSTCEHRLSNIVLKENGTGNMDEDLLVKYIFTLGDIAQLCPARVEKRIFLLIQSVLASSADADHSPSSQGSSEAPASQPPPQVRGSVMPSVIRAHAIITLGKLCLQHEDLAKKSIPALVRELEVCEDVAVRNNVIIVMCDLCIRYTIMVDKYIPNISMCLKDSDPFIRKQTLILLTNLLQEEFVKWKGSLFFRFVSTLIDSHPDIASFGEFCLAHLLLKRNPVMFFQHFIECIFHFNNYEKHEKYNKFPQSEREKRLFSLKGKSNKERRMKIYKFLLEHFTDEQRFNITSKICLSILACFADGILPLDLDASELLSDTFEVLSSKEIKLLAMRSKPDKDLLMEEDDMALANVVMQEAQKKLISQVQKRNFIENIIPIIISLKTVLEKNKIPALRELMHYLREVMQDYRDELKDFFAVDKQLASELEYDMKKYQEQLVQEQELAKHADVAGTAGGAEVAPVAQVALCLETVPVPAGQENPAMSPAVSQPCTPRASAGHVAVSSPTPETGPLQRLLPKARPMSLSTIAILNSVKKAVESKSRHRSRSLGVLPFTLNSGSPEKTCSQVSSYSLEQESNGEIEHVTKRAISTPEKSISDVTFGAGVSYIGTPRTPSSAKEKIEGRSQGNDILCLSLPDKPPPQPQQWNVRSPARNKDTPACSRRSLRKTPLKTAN

[5] = target: cysteines in MDA-MB-231 and Ramos cells (Homo sapiens, UniProt P16455); experiment: as above; type: cell-based; conditions: 200 μM, insitu, ramos
[6] = target: cysteines in MDA-MB-231 and Ramos cells (Homo sapiens, UniProt Q15796); experiment: as above; type: cell-based; conditions: 200 μM, insitu
[7] = target: cysteines in MDA-MB-231 and Ramos cells (Homo sapiens, UniProt Q13613); experiment: as above; type: cell-based; conditions: 200 μM, insitu
[8] = target: cysteines in MDA-MB-231 and Ramos cells (Homo sapiens, UniProt Q6PJG6); experiment: as above; type: cell-based; conditions: 200 μM, insitu, ramos
[9] = target: cysteines in MDA-MB-231 and Ramos cells (Homo sapiens, UniProt A2A288); experiment: as above; type: cell-based; conditions: 200 μM, insitu, ramos
WT-IDH1 (C269) = target: T3, WT-IDH1 (C269) (Homo sapiens, UniProt O75874); experiment: Blockade of IA-rhodamine labeling of WT-IDH1; type: binding; conditions: 2 μM protein in MDA-MB-231 lysate
T3 construct: Full length cDNAs encoding for IDH1 (Open Biosystems, Clone ID: 3880331) and IMPDH2; His6 (C); made in house; host or cells: E. coli BL21(DE3)
T3 sequence (O75874 whole entry): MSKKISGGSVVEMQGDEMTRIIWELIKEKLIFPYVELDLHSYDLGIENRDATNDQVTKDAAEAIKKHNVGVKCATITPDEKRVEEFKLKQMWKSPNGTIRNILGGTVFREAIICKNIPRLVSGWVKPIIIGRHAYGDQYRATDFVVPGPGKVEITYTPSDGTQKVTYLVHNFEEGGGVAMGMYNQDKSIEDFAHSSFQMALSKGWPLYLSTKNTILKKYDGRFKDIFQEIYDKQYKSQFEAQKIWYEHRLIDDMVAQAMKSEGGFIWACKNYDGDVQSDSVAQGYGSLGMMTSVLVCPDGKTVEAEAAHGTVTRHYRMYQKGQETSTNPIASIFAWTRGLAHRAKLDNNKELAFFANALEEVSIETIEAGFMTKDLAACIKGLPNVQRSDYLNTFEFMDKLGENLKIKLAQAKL

Chain of cysteines in MDA-MB-231 and Ramos cells (Homo sapiens, UniProt Q15796) (Q15796 whole entry): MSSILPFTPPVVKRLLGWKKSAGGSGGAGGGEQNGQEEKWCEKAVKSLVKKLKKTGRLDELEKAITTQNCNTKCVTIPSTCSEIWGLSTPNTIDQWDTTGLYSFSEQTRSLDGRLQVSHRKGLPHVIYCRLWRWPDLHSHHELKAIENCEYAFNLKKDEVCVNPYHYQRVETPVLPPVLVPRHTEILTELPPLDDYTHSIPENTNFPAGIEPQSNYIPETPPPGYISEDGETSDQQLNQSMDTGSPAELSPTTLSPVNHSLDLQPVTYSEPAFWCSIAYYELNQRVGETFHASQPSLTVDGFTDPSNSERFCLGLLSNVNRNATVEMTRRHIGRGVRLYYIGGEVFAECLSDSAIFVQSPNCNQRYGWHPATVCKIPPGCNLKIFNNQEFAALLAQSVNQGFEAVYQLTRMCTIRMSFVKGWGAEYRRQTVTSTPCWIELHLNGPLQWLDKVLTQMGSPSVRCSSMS
Chain of cysteines in MDA-MB-231 and Ramos cells (Homo sapiens, UniProt Q13232) (Q13232 whole entry): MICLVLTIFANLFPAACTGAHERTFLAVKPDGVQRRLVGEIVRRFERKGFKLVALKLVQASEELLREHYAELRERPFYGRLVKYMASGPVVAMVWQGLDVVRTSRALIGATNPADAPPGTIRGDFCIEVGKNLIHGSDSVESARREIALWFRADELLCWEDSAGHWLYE
Chain of ACO2 C385 (Q99798) (Q99798 28-780): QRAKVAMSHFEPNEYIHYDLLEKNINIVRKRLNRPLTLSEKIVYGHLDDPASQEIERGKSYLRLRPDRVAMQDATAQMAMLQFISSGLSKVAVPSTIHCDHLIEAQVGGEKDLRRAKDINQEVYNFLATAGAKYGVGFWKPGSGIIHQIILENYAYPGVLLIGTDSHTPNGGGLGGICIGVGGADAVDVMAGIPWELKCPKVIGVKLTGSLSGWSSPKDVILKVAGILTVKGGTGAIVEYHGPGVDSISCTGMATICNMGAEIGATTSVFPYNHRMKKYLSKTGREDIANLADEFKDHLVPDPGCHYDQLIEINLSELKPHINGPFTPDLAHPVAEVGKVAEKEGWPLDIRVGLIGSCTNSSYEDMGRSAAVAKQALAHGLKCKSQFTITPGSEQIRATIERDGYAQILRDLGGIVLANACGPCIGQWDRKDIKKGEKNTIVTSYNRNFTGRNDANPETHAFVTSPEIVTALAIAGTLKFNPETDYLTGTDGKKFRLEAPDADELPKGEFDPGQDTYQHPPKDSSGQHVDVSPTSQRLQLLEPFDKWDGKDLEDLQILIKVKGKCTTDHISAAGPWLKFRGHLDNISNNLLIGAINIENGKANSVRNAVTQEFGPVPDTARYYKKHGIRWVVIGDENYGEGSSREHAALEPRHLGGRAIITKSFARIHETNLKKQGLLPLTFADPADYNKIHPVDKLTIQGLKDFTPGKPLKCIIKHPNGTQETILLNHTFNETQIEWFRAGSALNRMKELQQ
Chain of cysteines in MDA-MB-231 and Ramos cells (Homo sapiens, UniProt Q9NZB2) (Q9NZB2 whole entry): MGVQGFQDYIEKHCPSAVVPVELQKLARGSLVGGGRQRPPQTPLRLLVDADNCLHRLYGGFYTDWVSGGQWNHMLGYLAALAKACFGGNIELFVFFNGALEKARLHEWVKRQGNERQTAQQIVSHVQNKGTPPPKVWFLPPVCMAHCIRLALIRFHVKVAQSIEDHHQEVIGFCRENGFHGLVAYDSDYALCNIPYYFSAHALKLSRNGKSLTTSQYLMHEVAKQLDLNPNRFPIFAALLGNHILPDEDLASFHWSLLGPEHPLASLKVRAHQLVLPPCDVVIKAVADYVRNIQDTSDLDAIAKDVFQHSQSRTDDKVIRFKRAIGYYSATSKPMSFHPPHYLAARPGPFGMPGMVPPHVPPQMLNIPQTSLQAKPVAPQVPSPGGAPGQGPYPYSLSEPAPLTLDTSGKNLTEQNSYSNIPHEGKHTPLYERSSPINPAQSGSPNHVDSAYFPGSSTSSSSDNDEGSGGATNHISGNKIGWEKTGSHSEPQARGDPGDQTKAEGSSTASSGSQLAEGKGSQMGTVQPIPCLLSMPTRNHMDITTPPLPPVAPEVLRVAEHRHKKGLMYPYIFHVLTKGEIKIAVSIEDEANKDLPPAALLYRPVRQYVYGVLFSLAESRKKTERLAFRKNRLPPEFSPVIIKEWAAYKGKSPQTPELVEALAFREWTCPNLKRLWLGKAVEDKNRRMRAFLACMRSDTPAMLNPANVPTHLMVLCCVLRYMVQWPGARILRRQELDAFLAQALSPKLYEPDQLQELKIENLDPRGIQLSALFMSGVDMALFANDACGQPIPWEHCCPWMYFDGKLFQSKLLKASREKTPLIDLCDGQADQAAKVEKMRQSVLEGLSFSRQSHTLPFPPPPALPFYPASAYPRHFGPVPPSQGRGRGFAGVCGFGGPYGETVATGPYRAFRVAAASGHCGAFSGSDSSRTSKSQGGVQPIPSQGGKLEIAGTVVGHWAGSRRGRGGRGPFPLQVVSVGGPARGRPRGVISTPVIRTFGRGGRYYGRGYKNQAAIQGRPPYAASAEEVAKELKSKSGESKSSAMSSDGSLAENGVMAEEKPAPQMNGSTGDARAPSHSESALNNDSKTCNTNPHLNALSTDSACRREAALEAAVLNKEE
Chain of cysteines in MDA-MB-231 and Ramos cells (Homo sapiens, UniProt Q6PJG6) (Q6PJG6 whole entry): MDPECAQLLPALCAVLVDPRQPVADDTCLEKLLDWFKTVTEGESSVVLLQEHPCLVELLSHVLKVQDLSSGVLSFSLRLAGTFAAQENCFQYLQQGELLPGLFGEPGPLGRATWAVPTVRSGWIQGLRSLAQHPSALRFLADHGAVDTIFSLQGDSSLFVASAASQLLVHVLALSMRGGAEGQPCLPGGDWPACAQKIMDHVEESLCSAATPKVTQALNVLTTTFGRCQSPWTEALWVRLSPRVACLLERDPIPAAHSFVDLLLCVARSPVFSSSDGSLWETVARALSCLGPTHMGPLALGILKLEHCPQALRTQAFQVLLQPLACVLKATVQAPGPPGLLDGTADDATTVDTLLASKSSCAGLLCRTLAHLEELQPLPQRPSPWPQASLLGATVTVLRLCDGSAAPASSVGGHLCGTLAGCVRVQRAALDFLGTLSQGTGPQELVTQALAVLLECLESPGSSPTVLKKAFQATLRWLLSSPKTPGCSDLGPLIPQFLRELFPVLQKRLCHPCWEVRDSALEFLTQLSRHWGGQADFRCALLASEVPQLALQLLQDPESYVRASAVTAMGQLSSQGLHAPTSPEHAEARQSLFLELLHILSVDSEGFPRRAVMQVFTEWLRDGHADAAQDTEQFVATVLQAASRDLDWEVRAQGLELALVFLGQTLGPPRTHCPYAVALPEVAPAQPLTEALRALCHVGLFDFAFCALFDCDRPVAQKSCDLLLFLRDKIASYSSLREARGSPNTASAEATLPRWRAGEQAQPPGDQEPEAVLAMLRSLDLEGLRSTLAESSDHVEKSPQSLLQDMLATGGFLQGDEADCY
Chain of cysteines in MDA-MB-231 and Ramos cells (Homo sapiens, UniProt A2A288) (A2A288 whole entry): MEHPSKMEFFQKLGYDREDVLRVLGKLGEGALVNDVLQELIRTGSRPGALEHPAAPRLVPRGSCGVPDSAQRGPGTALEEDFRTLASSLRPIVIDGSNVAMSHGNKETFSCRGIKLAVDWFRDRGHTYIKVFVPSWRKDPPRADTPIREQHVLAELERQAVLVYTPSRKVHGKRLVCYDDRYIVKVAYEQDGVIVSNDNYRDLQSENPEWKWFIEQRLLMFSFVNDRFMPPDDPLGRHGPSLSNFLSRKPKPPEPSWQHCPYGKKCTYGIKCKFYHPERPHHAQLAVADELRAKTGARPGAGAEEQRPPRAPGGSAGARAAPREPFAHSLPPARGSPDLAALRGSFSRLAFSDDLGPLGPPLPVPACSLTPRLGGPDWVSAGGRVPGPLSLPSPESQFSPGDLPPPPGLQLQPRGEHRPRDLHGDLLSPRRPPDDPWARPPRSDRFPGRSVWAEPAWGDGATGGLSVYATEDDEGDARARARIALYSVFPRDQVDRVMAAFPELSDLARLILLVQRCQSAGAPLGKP
Chain of cysteines in MDA-MB-231 and Ramos cells (Homo sapiens, UniProt P16455) (P16455 whole entry): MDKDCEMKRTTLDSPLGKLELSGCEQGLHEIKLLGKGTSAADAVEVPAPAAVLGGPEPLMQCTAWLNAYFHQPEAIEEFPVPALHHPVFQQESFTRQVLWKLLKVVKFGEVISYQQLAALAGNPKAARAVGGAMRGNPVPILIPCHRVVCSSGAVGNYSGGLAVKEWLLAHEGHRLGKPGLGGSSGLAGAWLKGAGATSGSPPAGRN

COc1ccc(C2CC(c3cccs3)=NN2C(=O)CCl)cc1 (stereo not drawn) [compound 4]
isoTOP-ABPP reactivity profile (ratio) 4_100 μM_in-situ_231 (ACO2 C385 (Q99798); fragment 4 at 100 μM): 1.0

CC1CCc2ccccc2N1C(=O)CCl (stereo not drawn) [compound 45]
isoTOP-ABPP ratio Q8NEC7_C140 [1]; 231: 20.0 | isoTOP-ABPP ratio Q13232_C158 [2]; 231: 8.8

O=C(CCl)NC(=O)NC12CC3CC(CC(C3)C1)C2 [compound 12]
isoTOP-ABPP ratio, cysteine Q9NZB2_C531 [3]: 20.0

O=C(CCl)N1CCN(S(=O)(=O)c2ccccc2F)CC1 [compound 10]
isoTOP-ABPP ratio, cysteine P42695_C541 [4]; 231: 20.0 | isoTOP-ABPP ratio, cysteine P42695_C541 ([4]; ramos): 6.5 | isoTOP-ABPP ratio, cysteine P16455_C145 [5]: 20.0

O=C(CCl)N1CCN(CC(=O)N2CCOCC2)CC1 [compound 29]
isoTOP-ABPP ratio Q15796_C81 ([6]; ramos): 1.3 | isoTOP-ABPP ratio Q13613_C117 ([7]; ramos): 1.5 | isoTOP-ABPP ratio Q6PJG6_C673 [8]: 4.6 | isoTOP-ABPP ratio Q13232_C158 ([2]; ramos): 1.5 | isoTOP-ABPP ratio A2A288_C367 [9]: 1.3

O=C(CCl)N1CCC(C(O)(c2ccccc2)c2ccccc2)CC1 [compound 20]
IC50 (WT-IDH1 (C269)): 2900 nM

O=C(CCl)NC12CC3CC(CC(C3)C1)C2 [compound 21]
isoTOP-ABPP ratio, cysteine Q15796_C81 [6]; 231: 1.3 | isoTOP-ABPP ratio, cysteine Q13613_C117 [7]; 231: 0.9 | isoTOP-ABPP ratio, cysteine P42695_C541 [4]; 231: 2.3 | isoTOP-ABPP ratio, cysteine Q9NZB2_C531 [3]: 1.6

COc1ccc2c(c1)CCCN2C(=O)CCl [compound 2]
isoTOP-ABPP reactivity profile (ratio) 2_200 μM_in-situ_231 (ACO2 C385 (Q99798); fragment 2 at 200 μM): 20.0 | IC50 (WT-IDH1 (C269)): > 50000 nM

O=C(CCl)NCCc1c[nH]c2ccccc12 [compound 13]
isoTOP-ABPP ratio, cysteine Q8NEC7_C140 [1]; 231: 1.8 | isoTOP-ABPP ratio, cysteine Q8NEC7_C140 ([1]; ramos): 20.0

C=CC(=O)N(Cc1cccnc1)c1cc(C(F)(F)F)cc(C(F)(F)F)c1 [compound 31]
isoTOP-ABPP ratio Q6PJG6_C673 [8]: 20.0 | isoTOP-ABPP ratio, P16455_C145 [5]: 1.2 | isoTOP-ABPP ratio A2A288_C367 [9]: 1.9

Reference: US10670605B2, “Cysteine reactive probes and uses thereof” (The Scripps Research Institute, priority 2015, dated 2020)
